# Assays:
# MV4-11 tumor xenografts = experiment: In vivo xenograft study; conditions: for MST (median survival time): vehicle MST = 38 days; for mice with unmeasurable tumor size (zero tumor volume): day 29, n = 7
# Procedure: In vivo xenograft study. The in vivo efficacy of CDDD11-8 on tumors developed in mice from AML cells was evaluated by engrafting 5 × 10^6 MV4-11 cells suspended in a 1:1 mixture of Matrigel^TM (Becton Dickinson, Corning, NY, USA) and serum-free medium (100 µL) subcutaneously into the right flank of female BALB/c nude (nu/nu) mice (6–7 weeks). When the tumor reached a volume of 100–200 mm^3, mice were randomized into 3 groups (n = 7). Mice in G1 received vehicle (acetate buffer at pH 4.74), while mice in G2 and G3 received CDDD11-8, at 75 and 125 mg/kg, respectively. Both CDDD11-8 and vehicle were administered orally, once a day for 28 days. Clinical signs of toxicity were observed daily; body weights were measured daily during the dosing period and every other day thereafter. Tumor dimensions, i.e., length (L) and width (W), were measured every other day using Vernier calipers. The tumor volume was calculated using the formula 0.52 × L × W^2, where L and W are perpendicularly measured diameters and L ≥ W. Mice were humanely killed by CO2 asphyxiation when the tumor volume reached 1500 mm^3 or the percent loss of body weight exceeded 15%, or the study was completed.
# Data were analyzed statistically using GraphPad Prism version 7. Descriptive statistics (frequency, mean, percentage) were used to report tumor volume, body weights, daily change in body weights from day 1 of dosing, and the ratio of tumor volume between treatment and control groups (T/C). Statistical differences in tumor volume between treated and control groups were analyzed using two-way ANOVA, where days on which the tumor volume was measured and treatments were the two independent factors, with a two-tailed significance cut-off level of p < 0.05. Tumor growth inhibition (TGI) was calculated as %TGI = [((VCD − VCB) − (VTD − VTB))/(VCD − VCB)] × 100, where VCD and VTD were the tumor volumes of the vehicle and treated groups on the calculated day, respectively, and VCB and VTB were the tumor volumes of the vehicle and treated groups at baseline (day 1). Kaplan–Meier survival analysis was performed, and group comparisons were done with the Gehan–Breslow–Wilcoxon test with Bonferroni correction method.
# [1] = tested on: other members of the CDK family; experiment: ADP Glo kinase assay, CDK selectivity; assay type: biochemical, human; conditions: ratio of potency
# Procedure: Kinase assay. The ADP Glo^TM kinase assay (Promega, Madison, WI, USA) was used to assess the inhibition by CDDD11-8 of CDKs 1, 2, 4, 6, 7, and 9, as well as the mutant isoforms of FLT3. The assays were performed in accord with the manufacturer’s protocol (Promega) as described previously. Briefly, serial three-fold dilutions of CDDD11-8 were prepared in 100% DMSO from a 2 mM stock solution, followed by 1:40 dilution into Milli-Q water. […] Luminescence was read using an EnVision® multilabel plate reader (PerkinElmer, Beaconsfield, UK), and half-maximum inhibitory concentrations (IC50) were calculated using a non-linear regression model with a variable slope, plotting log (inhibitor concentration) vs. response using the following formula: Ar%=Bottom+Top−Bottom/1+Inhibitor Concentration/IC50^HillSlope where the relative activity Ar (%) is the signal relative to the controls, IC50 is the half maximum concentration, Hillslope is the steepness of the dose-response curve, Top and Bottom are plateaus reflecting the maximum and minimum in responses on the Y-axis (GraphPad Prism version 7, San Diego, CA, USA). Ki values were calculated from the IC50 using the Cheng−Prusoff equation [32]. […]
compound,measurement,setting,value
Cc1cnc(N[C@H]2CC[C@H](N)CC2)nc1-c1cnc2ccc(-c3ccccc3)cn12 [CDDD11-8],day from which inhibition of tumor growth was statistically significant vs vehicle,MV4-11 tumor xenografts; 75 mg/kg PO QD,9 days
same,increase in the life span,MV4-11 tumor xenografts; 75 mg/kg PO QD 28 days,29%
same,MST (median survival time),MV4-11 tumor xenografts; 75 mg/kg PO QD 28 days,49 days
same,T/C%,"MV4-11 tumor xenografts; 75 mg/kg PO QD, day 1",101%
same,% TGI,"MV4-11 tumor xenografts; 75 mg/kg PO QD, day 3",92%
same,T/C%,"MV4-11 tumor xenografts; 75 mg/kg PO QD, day 3",75%
same,% TGI,"MV4-11 tumor xenografts; 75 mg/kg PO QD, day 5",101%
same,T/C%,"MV4-11 tumor xenografts; 75 mg/kg PO QD, day 5",60%
same,% TGI,"MV4-11 tumor xenografts; 75 mg/kg PO QD, day 7",95%
same,T/C%,"MV4-11 tumor xenografts; 75 mg/kg PO QD, day 7",50%
same,% TGI,"MV4-11 tumor xenografts; 75 mg/kg PO QD, day 9",115%
same,T/C%,"MV4-11 tumor xenografts; 75 mg/kg PO QD, day 9",32%
same,% TGI,"MV4-11 tumor xenografts; 75 mg/kg PO QD, day 11",121%
same,T/C%,"MV4-11 tumor xenografts; 75 mg/kg PO QD, day 11",22%
same,% TGI,"MV4-11 tumor xenografts; 75 mg/kg PO QD, day 13",127%
same,T/C%,"MV4-11 tumor xenografts; 75 mg/kg PO QD, day 13",12%
same,% TGI,"MV4-11 tumor xenografts; 75 mg/kg PO QD, day 15",129%
same,T/C%,"MV4-11 tumor xenografts; 75 mg/kg PO QD, day 15",8%
same,% TGI,"MV4-11 tumor xenografts; 75 mg/kg PO QD, day 17",128%
same,T/C%,"MV4-11 tumor xenografts; 75 mg/kg PO QD, day 17",6%
same,% TGI,"MV4-11 tumor xenografts; 75 mg/kg PO QD, day 19",125%
same,T/C%,"MV4-11 tumor xenografts; 75 mg/kg PO QD, day 19",5%
same,% TGI,"MV4-11 tumor xenografts; 75 mg/kg PO QD, day 21",119%
same,T/C%,"MV4-11 tumor xenografts; 75 mg/kg PO QD, day 21",5%
same,% TGI,"MV4-11 tumor xenografts; 75 mg/kg PO QD, day 23",112%
same,T/C%,"MV4-11 tumor xenografts; 75 mg/kg PO QD, day 23",5%
same,% TGI,"MV4-11 tumor xenografts; 75 mg/kg PO QD, day 25",105%
same,T/C%,"MV4-11 tumor xenografts; 75 mg/kg PO QD, day 25",9%
same,% TGI,"MV4-11 tumor xenografts; 75 mg/kg PO QD, day 27",96%
same,T/C%,"MV4-11 tumor xenografts; 75 mg/kg PO QD, day 27",15%
same,% TGI,"MV4-11 tumor xenografts; 75 mg/kg PO QD, day 29",92%
same,mice with unmeasurable tumor size (zero tumor volume),MV4-11 tumor xenografts; 75 mg/kg PO QD,one
same,animals with tumor regression,"MV4-11 tumor xenografts; 75 mg/kg PO QD, starting on day 9, n = 7",two out of seven animals
same,day from which inhibition of tumor growth was statistically significant vs vehicle,MV4-11 tumor xenografts; 125 mg/kg PO QD,7 days
same,increase in the life span,MV4-11 tumor xenografts; 125 mg/kg PO QD 28 days,45%
same,MST (median survival time),MV4-11 tumor xenografts; 125 mg/kg PO QD 28 days,55 days
same,T/C%,"MV4-11 tumor xenografts; 125 mg/kg PO QD, day 1",102%
same,% TGI,"MV4-11 tumor xenografts; 125 mg/kg PO QD, day 3",127%
same,T/C%,"MV4-11 tumor xenografts; 125 mg/kg PO QD, day 3",66%
same,% TGI,"MV4-11 tumor xenografts; 125 mg/kg PO QD, day 5",133%
same,T/C%,"MV4-11 tumor xenografts; 125 mg/kg PO QD, day 5",47%
same,% TGI,"MV4-11 tumor xenografts; 125 mg/kg PO QD, day 7",122%
same,T/C%,"MV4-11 tumor xenografts; 125 mg/kg PO QD, day 7",36%
same,% TGI,"MV4-11 tumor xenografts; 125 mg/kg PO QD, day 9",142%
same,T/C%,"MV4-11 tumor xenografts; 125 mg/kg PO QD, day 9",16%
same,% TGI,"MV4-11 tumor xenografts; 125 mg/kg PO QD, day 11",137%
same,T/C%,"MV4-11 tumor xenografts; 125 mg/kg PO QD, day 11",12%
same,% TGI,"MV4-11 tumor xenografts; 125 mg/kg PO QD, day 13",139%
same,T/C%,"MV4-11 tumor xenografts; 125 mg/kg PO QD, day 13",4%
same,% TGI,"MV4-11 tumor xenografts; 125 mg/kg PO QD, day 15",136%
same,T/C%,"MV4-11 tumor xenografts; 125 mg/kg PO QD, day 15",3%
same,% TGI,"MV4-11 tumor xenografts; 125 mg/kg PO QD, day 17",133%
same,T/C%,"MV4-11 tumor xenografts; 125 mg/kg PO QD, day 17",2%
same,% TGI,"MV4-11 tumor xenografts; 125 mg/kg PO QD, day 19",130%
same,T/C%,"MV4-11 tumor xenografts; 125 mg/kg PO QD, day 19",2%
same,% TGI,"MV4-11 tumor xenografts; 125 mg/kg PO QD, day 21",123%
same,T/C%,"MV4-11 tumor xenografts; 125 mg/kg PO QD, day 21",2%
same,% TGI,"MV4-11 tumor xenografts; 125 mg/kg PO QD, day 23",117%
same,T/C%,"MV4-11 tumor xenografts; 125 mg/kg PO QD, day 23",1%
same,% TGI,"MV4-11 tumor xenografts; 125 mg/kg PO QD, day 25",114%
same,T/C%,"MV4-11 tumor xenografts; 125 mg/kg PO QD, day 25",1%
same,% TGI,"MV4-11 tumor xenografts; 125 mg/kg PO QD, day 27",112%
same,T/C%,"MV4-11 tumor xenografts; 125 mg/kg PO QD, day 27",1%
same,% TGI,"MV4-11 tumor xenografts; 125 mg/kg PO QD, day 29",109%
same,animals with tumor regression still maintained,"MV4-11 tumor xenografts; 125 mg/kg PO QD, day 29",six out of seven mice
same,mice with unmeasurable tumor size (zero tumor volume),MV4-11 tumor xenografts; 125 mg/kg PO QD,three
same,animals with tumor regression,"MV4-11 tumor xenografts; 125 mg/kg PO QD, from day 7, n = 7",all the mice
same,tolerability,"MV4-11 tumor xenografts; 75 and 125 mg/kg PO QD 28 days, tumor-bearing mice",well tolerated
same,selectivity for CDK9 over other members of the CDK family,[1],> 50 fold
